Source: publication PMC12030706, “Novel ^177Lu-Labeled [Thz^14]Bombesin(6–14) Derivatives with Low Pancreas Accumulation for Targeting Gastrin-Releasing Peptide Receptor-Expressing Cancer” (Pharmaceuticals, 2025)

Experiments:
PC-3 tumor xenografts = conditions: in vivo, 1 h; cited from earlier work
GRPR (PC-3 cells) = biological target: T1, GRPR (PC-3 cells) (Homo sapiens, UniProt P30550); assay: Fluorometric intracellular calcium release assay; assay type: cell-based; conditions: 50 nM, n = 3
T1 construct: GRPR-expressing prostate cancer PC-3 cells; host or cells: PC-3 prostate adenocarcinoma cells
Description: The antagonist/agonist characteristics of Lu-TacsBOMB5, Lu-LW01110, and Lu-LW01142 were determined following previously published procedure. A 96-well clear bottom black plate was seeded with 5 × 10^4 PC-3 prostate cancer cells/100 μL/well 24 h prior to the assay. The calcium-sensitive dye (FLIPR Calcium 6 assay kit from Molecular Devices, San Jose, CA, USA) in loading buffer (100 μL/well) was added into the 96-well plate, followed by 1 h incubation at 37 °C. After that, the plate was transferred into a FlexStation 3 microplate reader (Molecular Devices, San Jose, CA, USA). Lu-complexed nonradioactive standard (50 nM), [D-Phe^6,Leu-NHEt^13,des-Met^14]Bombesin(6–14) (50 nM, antagonist control), bombesin (50 nM, agonist control), adenosine triphosphate (ATP, 50 nM, positive control), or DPBS (blank control) was added, and the fluorescent signals were acquired for 2 min (λEx = 485 nm; λEm = 525 nm; n = 3). The relative fluorescent unit (RFU = max − min) was calculated to determine the agonistic/antagonistic characteristics for the tested ligands.

T1 sequence (P30550 whole entry): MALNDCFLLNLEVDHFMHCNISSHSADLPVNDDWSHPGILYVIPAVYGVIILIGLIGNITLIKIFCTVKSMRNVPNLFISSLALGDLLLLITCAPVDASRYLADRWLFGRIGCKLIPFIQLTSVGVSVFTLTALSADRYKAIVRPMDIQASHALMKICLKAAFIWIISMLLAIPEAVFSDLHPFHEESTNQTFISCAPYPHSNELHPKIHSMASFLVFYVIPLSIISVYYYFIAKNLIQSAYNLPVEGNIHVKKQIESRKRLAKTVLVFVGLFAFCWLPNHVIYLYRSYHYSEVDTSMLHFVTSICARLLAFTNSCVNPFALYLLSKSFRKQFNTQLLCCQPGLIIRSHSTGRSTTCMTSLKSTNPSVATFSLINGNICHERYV

Row | Molecule | Ca2+ efflux (RFU = max − min) (GRPR (PC-3 cells)) [RFUs] | uptake in PC-3 tumor xenografts (PC-3 tumor xenografts) [%ID/g]
1 | ^68Ga-DOTA-Pip-[D-Phe^6,NMe-Gly^11,Leu^13ψThz^14]Bombesin(6–14) [[^68Ga]Ga-TacsBOMB5] | – | 15.7 ± 2.17
2 | ^68Ga-DOTA-Pip-[D-Phe^6,Tle^10,NMe-His^12,Thz^14]Bombesin(6–14) [[^68Ga]Ga-LW01110] | – | 16.6 ± 1.60

Continued, in another order:

Row | Ca2+ efflux (RFU = max − min) (GRPR (PC-3 cells)) [RFUs] | Molecule | uptake in PC-3 tumor xenografts (PC-3 tumor xenografts) [%ID/g]
3 | 235 ± 15.2 | bombesin | –
4 | 29.7 ± 2.73 | [D-Phe^6,Leu-NHEt^13,des-Met^14]Bombesin(6–14) | –
5 | 150 ± 40.7 | Nc1ncnc2c1ncn2[C@@H]1O[C@H](COP(=O)(O)OP(=O)(O)OP(=O)(O)O)[C@@H](O)[C@H]1O [ATP, adenosine triphosphate] | –
